Test results: patent US8957108B2, “Use of 5,6-dimethylxanthenone-4-acetic acid as an antiviral agent” (University of Maryland, Baltimore, priority 2006, dated 2015)

Tested on: C57BL/6J macrophages
[1] = DMXAA 3 h vs unstimulated wild-type cells
[2] = ratio of fold change, wild-type vs IFN-β-deficient cells

## Cc1ccc2c(=O)c3cccc(CC(=O)O)c3oc2c1C [DMXAA, 5,6-dimethylxanthenone-4-acetic acid]
[1]
  ZBP1 Fold Change: BL/6: 15.4 fold
  ZNF313 Fold Change: BL/6: 3.2 fold
Of the 136 genes, 3-fold difference wild-type vs IFN-β−/−
  number of modulated genes that are IFN-β-dependent: 77 genes
Of ˜14,000 genes analyzed, 3 h, vs medium-treated cells
  number of genes with ≧3-fold change in expression: 136 genes
[2]
  2310043N10RIK WT/KO: 3.2
  5830484A20RIK WT/KO: 1.4
  ABCB1 WT/KO: 1.1
  ABL1 WT/KO: 5.6
  ABLIM1 WT/KO: 7.1
  ACVR1B WT/KO: 1.9
  ADRB2 WT/KO: 1.9
  AFTIPHILIN WT/KO: 3.0
  AKAP12 WT/KO: 2.2
  AMPD3 WT/KO: 1.5
  AP2A2 WT/KO: 1.1
  APBB1IP WT/KO: 2.2
  APOBEC3F WT/KO: 2.5
  ARHGEF3 WT/KO: 2.1
  ARID3A WT/KO: 1.6
  ARL4C WT/KO: 1.0
  ASF1A WT/KO: 1.8
  ATRX WT/KO: 1.6
  B3GAT3 WT/KO: 5.5
  BACE1 WT/KO: 3.2
  BAMBI WT/KO: 2.7
  BCL2L1 WT/KO: 6.0
  BCL2 WT/KO: 5.4
  BHLHB2 WT/KO: 3.0
  BID WT/KO: 1.1
  C8ORF4 WT/KO: 8.7
  C9ORF26 WT/KO: 2.1
  CCL2 WT/KO: 21.7
  CCL3 WT/KO: 4.1
  CCL4 WT/KO: 1.9
  CCL5 WT/KO: 1.4
  CCL7 WT/KO: 3.2
  CCL13 WT/KO: 2.9
  CCND2 WT/KO: 3.2
  CCNE1 WT/KO: 1.1
  CCNF WT/KO: 4.4
  CCRN4L WT/KO: 3.6
  CD37 WT/KO: 4.7
  CD40 WT/KO: 7.9
  CD86 WT/KO: 1.8
  CD274 WT/KO: 5.9
  CDC6 WT/KO: 1.2
  CDC7 WT/KO: 2.2
  CDC37L1 WT/KO: 1.7
  CDKN1A WT/KO: 2.7
  CEBPB WT/KO: 1.7
  CITED2 WT/KO: 4.6
  CLCA1 WT/KO: 2.5
  CNR2 WT/KO: 4.0
  CREBBP WT/KO: 0.7
  CXCL10 WT/KO: 3.3
  DAXX WT/KO: 4.9
  DSCR1 WT/KO: 1.3
  FGD6 WT/KO: 1.5
  FGL2 WT/KO: 2.9
  GBP2 WT/KO: 3.1
  GBP4 WT/KO: 1.6
  GBP6 WT/KO: 1.6
  GYPC WT/KO: 1.3
  IFI16 WT/KO: 1.6
  IFI35 WT/KO: 3.3
  IFI203 WT/KO: 6.4
  IFI205 WT/KO: 3.5
  IFIH1 WT/KO: 1.4
  IFIT1 WT/KO: 1.5
  IFIT2 WT/KO: 1.9
  IFIT3 WT/KO: 3.1
  IFNA5 WT/KO: 12.9
  IFNA6 WT/KO: 8.6
  IFNB1 WT/KO: 178.6
  IFNG WT/KO: 0.8
  IGTP WT/KO: 11.2
  IIGP1 WT/KO: 18.7
  IL6 WT/KO: 41.8
  IL12B WT/KO: 3.2
  IL15RA WT/KO: 4.5
  IL15 WT/KO: 4.3
  IRF1 WT/KO: 5.9
  IRF2 WT/KO: 3.5
  IRGM WT/KO: 2.9
  ISG20 WT/KO: 6.1
  KATNA1 WT/KO: 2.1
  LGP2 WT/KO: 2.4
  LHX2 WT/KO: 11.9
  LOC129607 WT/KO: 7.6
  MAFK WT/KO: 3.0
  MARCH5 WT/KO: 2.5
  MOV10 WT/KO: 3.4
  MX1 WT/KO: 20.7
  MX2 WT/KO: 74.3
  NMI WT/KO: 2.9
  NP WT/KO: 2.5
  NT5C3 WT/KO: 3.6
  OAS1B WT/KO: 6.2
  OASL WT/KO: 1.8
  P4HA1 WT/KO: 1.2
  P8 WT/KO: 2.9
  PARP9 WT/KO: 2.8
  PELI1 WT/KO: 1.4
  PGF WT/KO: 1.3
  PLAU WT/KO: 1.7
  PPP1R15A WT/KO: 3.4
  PTX3 WT/KO: 4.0
  PVRL2 WT/KO: 2.1
  PVRL4 WT/KO: 2.1
  REL WT/KO: 2.8
  RGC32 WT/KO: 2.9
  RIPK2 WT/KO: 2.5
  RSAD2 WT/KO: 2.0
  SAP30 WT/KO: 2.4
  SAV1 WT/KO: 1.2
  SDC4 WT/KO: 1.2
  SECTM1 WT/KO: 15.0
  SLC7A2 WT/KO: 2.0
  SOAT1 WT/KO: 1.8
  SOCS1 WT/KO: 16.7
  STAT2 WT/KO: 2.3
  TGTP WT/KO: 38.6
  TLK2 WT/KO: 3.0
  TLR3 WT/KO: 6.8
  TMOD3 WT/KO: 1.5
  TNF WT/KO: 5.0
  TNFRSF11B WT/KO: 0.9
  TNFSF9 WT/KO: 3.0
  TOR1AIP1 WT/KO: 2.4
  TPST1 WT/KO: 1.1
  TREX1 WT/KO: 2.0
  TRIM21 WT/KO: 3.2
  TRIM25 WT/KO: 1.8
  TRIM34 WT/KO: 1.7
  USP18 WT/KO: 11.4
  VCAM1 WT/KO: 2.1
  ZBP1 WT/KO: 3.7
  ZNF313 WT/KO: 2.1
